The record followed here is the supplement of paper PMC4862054.

For assay [1], the system named is BT-474. The note with it: 72 h. On the procedure: (§1)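 Drug sensitivity and resistance testing (DSRT) of breast cancer cell lines in 384-well plates, 5 concentrations in 10-fold dilutions over a compound-specific 10,000-fold range. After 72 h, cytotoxicity was read by CellTox Green fluorescence and viability by CellTiter-Glo luminescence (multiplexed), normalised to DMSO and benzethonium chloride controls. EC50 is the inflection point of the fitted dose-response curve (bottom asymptote free, so it can be relative for partial curves) and is censored at the highest tested concentration. Rows with DSS 0 (no meaningful response) were excluded.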

Assay [2] deals with MDA-MB-436. Particulars: 72 h. On the procedure:
as §1

In assay [3] the test system is CAL-85-1. Particulars: 72 h. On the procedure: as §1
The test system of assay [4] is HCC1599. Particulars: 72 h. The gist of the method:
(§2)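 After 72 h on 384-well plates pre-loaded with compound in 5 µl medium, breast cancer cell lines seeded in 20 µl were assayed for viability with 2.5 µl CellTiter-Blue at 37 °C for 2 h, read at 560/590 nm. Each plate was quality-checked by Z'-factor and normalised to vehicle and a positive kill control. EC50 comes from the fitted percent-inhibition dose-response curve, censored at the top concentration, and rows scoring zero for drug sensitivity were left out.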

A further assay relates to MFM-223. Particulars: 72 h. On the procedure:
as §1

In assay [5] the test system is HCC1143. Particulars: 72 h. The gist of the method:
as §2

Assay [6] has as its system MDA-MB-453. Description: normalised viability (% of control), CellTiter-Blue; higher = more viable cells (about 100 = DMSO control). The note with it: incubation time: 72 h. On the procedure: (§3)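 DSRT, CellTiter-Blue viability, 72 h incubation. Signal is normalised to DMSO and benzethonium chloride controls. Value is the normalised response at dose 9.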
On the technique in general: The colour change of resazurin is a common sign of viable cells or microbes.

Assay [7] deals with HDQ-P1. Described as above. Particulars: incubation time: 72 h. On the procedure: as §3
Assay [8] deals with CAL-51. The description is as above. The note with it: incubation time: 72 h. On the procedure:
as §3

Assay [9] relates to CAL-85-1. Described as above. Particulars: incubation time: 72 h. On the procedure:
as §3

In assay [10] the test system is CAL-148. The description is as above. Particulars: incubation time: 72 h. On the procedure:
as §3

The subject of a further assay is DU-4475. Described as above. Particulars: incubation time: 72 h. On the procedure:
as §3

In assay [11] the test system is MDA-MB-453. Briefly: normalised response (% of control), CellTiter-Glo; higher = more viable cells (100 = DMSO, 0 = benzethonium chloride kill control). The note with it: incubation time: 72 h. The gist of the method: (§4)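 CellTox Green fluorescence (485/520 nm) and, after 10 min at room temperature, CellTiter-Glo luminescence were read from breast cancer cell lines incubated 72 h in 384-well plates. Cells were seeded as 20 µl suspension onto compound at 5 concentrations in 10-fold steps over a 10,000-fold range chosen per compound. Each plate was normalised to 0.1 % DMSO (100) and a positive kill control (0). Values are normalised signals, one per concentration.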
Background: ATP-based viability assays read luminescence as a measure of living cells.

Assay [12] has as its system HDQ-P1. The assay is described as above. Particulars: incubation time: 72 h. The method in brief:
as §4

Another assay relates to CAL-120. The description is as above. The note with it: incubation time: 72 h. The gist of the method:
as §4

The test system of another assay is MCF-10A. The assay is described as above. Particulars: incubation time: 72 h. The method in brief: as §4
Another assay concerns BT-549. The assay is described as above. The note with it: incubation time: 72 h. The method in brief: as §4
The test system of assay [13] is HCC1143. The assay is described as above. Particulars: incubation time: 72 h. The gist of the method: as §4
In assay [14] the test system is CAL-51. The assay is described as above. Particulars: incubation time: 72 h. The gist of the method:
as §4

Assay [15] deals with BT-474. Described as above. The note with it: incubation time: 72 h. The method in brief: as §4
The subject of assay [16] is HCC1599. The assay is described as above. The note with it: incubation time: 72 h. The gist of the method: as §4
In assay [17] the test system is CAL-148. Described as above. Particulars: incubation time: 72 h. The method in brief: as §4
Another assay relates to HCC1937. The description is as above. Particulars: incubation time: 72 h. The method in brief: as §4
For another assay, the system named is SK-BR-3. The assay is described as above. The note with it: incubation time: 72 h. The gist of the method: as §4
Another assay relates to Hs578T. The description is as above. The note with it: incubation time: 72 h. The method in brief:
as §4

The test system of assay [18] is MDA-MB-436. The description is as above. The note with it: incubation time: 72 h. The method in brief: as §4

On to `COC(=O)c1ccc2c(c1)NC(=O)/C2=C(\Nc1ccc(N(C)C(=O)CN2CCN(C)CC2)cc1)c1ccccc1` [Nintedanib], for which the “EC50, CellTox Green” value is 2.54 µM with BT-474 [1] and 8830 nM with MDA-MB-436 [2].

With `Cc1cc(Nc2cc(CN3CCOCC3)c3nc(C)c(Cc4ccc(Cl)cc4F)n3n2)n[nH]1` [Gandotinib], the “EC50, CellTox Green” value in the assay with CAL-85-1 [3] was determined as 6590 nM; in the assay on MDA-MB-436 [2], 241 nM.

Turning to `N#Cc1ccc(COC[C@H]2O[C@@H](n3c(NCc4ccc(Cl)c(Cl)c4)nc4c(N)ncnc43)[C@H](O)[C@@H]2O)cc1`, the “EC50, CellTiter-Blue viability” value in the assay on HCC1599 [4] was 1350 nM. Also, the “EC50, CellTox Green” value in the assay with MFM-223 came out at 1000 nM.

With `Nc1cc(C(F)(F)F)c(-c2cc(N3CCOCC3)nc(N3CCOCC3)n2)cn1` [Buparlisib], the “EC50, CellTox Green” value with BT-474 [1] is 5.17 µM.

For `Cc1cc(Nc2cc(CN3CCOCC3)c3nc(C)c(Cc4ccc(Cl)cc4F)n3n2)n[nH]1`, the “EC50, CellTiter-Blue viability” value in the assay with HCC1143 [5] was found to be 121 nM.

As to `O=C(Nc1ccncc1)C(=O)c1cn(Cc2ccc(Cl)cc2)c2ccccc12` [Indibulin], in the assay on HCC1143 [5], the “EC50, CellTiter-Blue viability” value turned out to be 46.9 nM. Moreover, the entries for the “EC50, CellTox Green” value in the assay with CAL-85-1 [3] and with MFM-223 were 858 nM and 395 nM, respectively.

Regarding `COc1cc(OC2CCN(C)CC2)ccc1Nc1ncc2c(n1)n(C1CCCC1)c(=O)n2C` [AZ 3146], in the assay with MDA-MB-436 [2], the “EC50, CellTox Green” value is greater than 10000 nM.

On to `COCC1(CO)C(=O)C2CCN1CC2` (stereo unspecified) [Prima-1 Met] (10000 nM), for which the normalised viability in the assay on MDA-MB-453 [6] was 89.4%; in the assay with HDQ-P1 [7] it was 103%; in the assay with CAL-51 [8] it was 99.7%; with CAL-85-1 [9], 98.3%; in the assay on CAL-148 [10], 80.7%; with DU-4475, 125%. Besides, the normalised response in the assay on MDA-MB-453 [11] was found to be 93.1%; in the assay on HDQ-P1 [12], 96.7%; in the assay on CAL-120 it was 100%; with MCF-10A, 106%; in the assay on BT-549, 53.3%; in the assay with HCC1143 [13] it was 98%. Besides, the normalised response in the assay on CAL-51 [14] was 130%; in the assay on BT-474 [15], 97.1%; in the assay with HCC1599 [16], 108%; in the assay with CAL-148 [17] it was 110%; in the assay with HCC1937 it was 101%; with SK-BR-3, 106%. Also, the normalised response with Hs578T is 97.4%; in the assay on MDA-MB-436 [18], 97.7%.

In the case of `CO[C@H]1C[C@@H]2CC[C@@H](C)[C@@](O)(O2)C(=O)C(=O)N2CCCC[C@H]2C(=O)O[C@H]([C@H](C)C[C@@H]2CC[C@@H](OP(C)(C)=O)[C@H](OC)C2)CC(=O)[C@H](C)/C=C(\C)[C@@H](O)[C@@H](OC)C(=O)[C@H](C)C[C@H](C)/C=C/C=C/C=C/1C` [Ridaforolimus], the “EC50, CellTiter-Blue viability” value in the assay on HCC1143 [5] was determined as 1 nM. In the assay with MDA-MB-436 [2], the “EC50, CellTox Green” value was found to be 64.5 nM.

For the compound `CNC(=O)c1cccc(-c2ccc3c(N4CCOC[C@@H]4C)nc(N4CCOC[C@@H]4C)nc3n2)c1` [AZD2014], the “EC50, CellTox Green” value in the assay on MFM-223 was greater than 10000 nM.

As for `Nc1cc(C(F)(F)F)c(-c2cc(N3CCOCC3)nc(N3CCOCC3)n2)cn1` [BKM-120], the “EC50, CellTiter-Blue viability” value with HCC1143 [5] came to 2350 nM; with HCC1599 [4], 517 nM.

Turning to `NC(=O)c1ccc(I)c([N+](=O)[O-])c1` [Iniparib] (10000 nM), the normalised viability with MDA-MB-453 [6] is 84.8%; in the assay on HDQ-P1 [7], 106%; in the assay on CAL-51 [8] it was 91.6%; in the assay with CAL-85-1 [9], 98%; in the assay with CAL-148 [10], 108%; in the assay with DU-4475, 94%. Moreover, the normalised response in the assay with MDA-MB-453 [11] came to 73.2%; with HDQ-P1 [12], 96.3%; in the assay with CAL-120 it was 98.2%; in the assay with MCF-10A, 76.3%; in the assay on BT-549, 96.5%; with HCC1143 [13] it was 92.1%. Also, the normalised response with CAL-51 [14] worked out at 84.7%; with BT-474 [15], 91%; in the assay on HCC1599 [16], 88%; with CAL-148 [17], 88.8%; in the assay with HCC1937, 86.9%; with SK-BR-3 it was 71.1%. Further, the normalised response in the assay with Hs578T is 95.5%; in the assay with MDA-MB-436 [18] it was 73.3%.

Turning to `CN(C)CCOc1ccc(/C(=C(/CCCl)c2ccccc2)c2ccccc2)cc1` [Toremifene], the “EC50, CellTox Green” value in the assay with BT-474 [1] was determined as 6.16 µM.

For `O=C(Nc1ccncc1)C(=O)c1cn(Cc2ccc(Cl)cc2)c2ccccc12` [Indibulin] (10000 nM), the normalised viability with MDA-MB-453 [6] worked out at 36%; with HDQ-P1 [7], 55.2%; in the assay with CAL-51 [8] it was 24.4%; in the assay on CAL-85-1 [9], 38.9%; in the assay with CAL-148 [10], 43.7%; with DU-4475, 21.4%. The normalised response is 66.9% with MDA-MB-453 [11]; 72% in the assay on HDQ-P1 [12]; 60.7% in the assay with CAL-120; 76.1% in the assay with MCF-10A; 39.2% in the assay with BT-549; 47.9% with HCC1143 [13]. For the same compound, the normalised response with CAL-51 [14] worked out at 18.4%; in the assay with BT-474 [15], 73.5%; with HCC1599 [16] it was 73.1%; with CAL-148 [17], 103%; in the assay with HCC1937 it was 69%; with SK-BR-3, 27%. In addition, the normalised response worked out at 51.4% in the assay with Hs578T and 44.7% with MDA-MB-436 [18].

On to `COc1cc2ncnc(Nc3ccc(F)c(Cl)c3)c2cc1OCCCN1CCOCC1` [Gefitinib], for which the “EC50, CellTiter-Blue viability” value in the assay with HCC1599 [4] was 775 nM. Also, in the assay with CAL-85-1 [3], the “EC50, CellTox Green” value was found to be 2900 nM.

Take `CCc1c2c(nc3ccc(OC(=O)N4CCC(N5CCCCC5)CC4)cc13)-c1cc3c(c(=O)n1C2)COC(=O)[C@]3(O)CC` [Irinotecan]: the “EC50, CellTiter-Blue viability” value was 2350 nM with HCC1143 [5] and 692 nM in the assay on HCC1599 [4].

`CNC(=O)c1cc(Oc2ccc(NC(=O)Nc3ccc(Cl)c(C(F)(F)F)c3)c(F)c2)ccn1` [Regorafenib]: the “EC50, CellTiter-Blue viability” value was 3.84 nM in the assay with HCC1143 [5] and 7360 nM in the assay on HCC1599 [4].

For `CN(C)c1nc(N(C)C)nc(N(C)C)n1` [Altretamine], in the assay on HCC1599 [4], the “EC50, CellTiter-Blue viability” value was found to be 2950 nM.

For `COc1cc2/c(=N/c3ccc(Br)cc3F)nc[nH]c2cc1OCC1CCN(C)CC1` [Vandetanib], the “EC50, CellTiter-Blue viability” value in the assay with HCC1143 [5] was greater than 10000 nM.
